{"source": "ChEMBL document CHEMBL3045899", "about": "“New asperxanthone and asperbiphenyl from the marine fungus Aspergillus sp” (2009)"}
{"test_system": "Tobacco mosaic virus", "assay": "Inhibitory activity against Tobacco mosaic virus (TMV) inoculated in Nicotiana tabacum L. cv.K326 leaf assessed as inhibition of virus multiplication at 0.2 mg/ml measured by leaf disk method (reference value: 0%)", "assay_type": "functional", "units": {"inhibition at 200 µg/mL": "%"}}
{"smiles": "CCCCCCCC/C=C/C=C/CCCCCCCCCCCCCCCCCCCCCC(=O)OC(CO)CO", "inhibition at 200 µg/mL": 16.3}
{"smiles": "CCCCCCCC/C=C/C=C/CCCCCCCCCCCCCC/C=C/C=C/CCCC(=O)OC(CO)CO", "inhibition at 200 µg/mL": 14.3}
{"smiles": "CCCCCCCCCCCCCCCCCCCCCCCCCC/C=C/C=C/C=C/CCC(=O)OC(CO)CO", "inhibition at 200 µg/mL": 13.9}
{"smiles": "CCCCCCCC/C=C/C=C/CCCCCCCCCCCCCC/C=C/C=C/CCCC(=O)OCC(O)CO", "note": "(centres undefined)", "inhibition at 200 µg/mL": 17.4}
{"smiles": "CCCCCCCCCC/C=C/C=C/CCCC(=O)OCC(O)CO", "note": "(centres undefined)", "inhibition at 200 µg/mL": 12.5}
{"smiles": "CCCCCCCCCCC/C=C/C=C/CCCC(=O)OCC(O)CO", "note": "(centres undefined)", "inhibition at 200 µg/mL": 14.9}
{"smiles": "CCCCCCC/C=C/C=C/CCCC(=O)OC(CO)CO", "inhibition at 200 µg/mL": 14.2}
{"smiles": "Cc1c(O)c(-c2c(O)c(C)c3c(c2O)CO[C@H](C)[C@H]3C)c(O)c2c1[C@@H](C)[C@H](C)OC2", "note": "[ASPERBIPHENYL]", "inhibition at 200 µg/mL": 35.5}
{"smiles": "COc1cc2oc3cccc(O)c3c(=O)c2c2c1[C@@H]1C=CO[C@@H]1O2", "note": "[ASPERXANTHONE]", "inhibition at 200 µg/mL": 62.9}
